In ChEMBL document CHEMBL5614367, “Hydroxamic acid hybrids: Histone deacetylase inhibitors with anticancer therapeutic potency” (Eur J Med Chem, 2023):
Blank lines part the entries; values can stand above or below the compound they belong to.

Tests used:
[1] = biological target: T1, Histone deacetylase 8 (Homo sapiens, UniProt Q9BY41); test: Inhibition of HDAC8 (unknown origin)
T1 sequence (Q9BY41 whole entry): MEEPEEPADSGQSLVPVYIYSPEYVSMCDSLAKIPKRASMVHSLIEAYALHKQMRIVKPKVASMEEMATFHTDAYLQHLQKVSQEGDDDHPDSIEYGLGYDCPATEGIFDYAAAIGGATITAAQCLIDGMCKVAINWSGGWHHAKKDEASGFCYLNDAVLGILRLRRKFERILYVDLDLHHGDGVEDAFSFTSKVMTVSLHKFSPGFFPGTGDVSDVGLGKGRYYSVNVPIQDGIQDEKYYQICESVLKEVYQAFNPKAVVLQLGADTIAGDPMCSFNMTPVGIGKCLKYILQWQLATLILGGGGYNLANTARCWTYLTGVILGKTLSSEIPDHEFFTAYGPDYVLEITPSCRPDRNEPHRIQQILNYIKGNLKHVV

[2] = Metabolic stability in liver microsomes (unknown origin) assessed as clearance; assay type: ADME, Microsome; settings: read-out: CLH
[3] = Metabolic stability in liver microsomes (unknown origin) assessed as half life; assay type: ADME, Microsome
[4] = test system: BE(2)-C; test: Antitumor activity against human BE2C cells xenografted in mouse assessed as tumor growth inhibition at 50 mg/kg, ip relative to control; assay type: functional; settings: read-out: TGI
[5] = test system: A-431; test: Antiproliferative activity against human A-431 cells assessed as inhibition of cell growth by MTT assay; assay type: functional, cell-based
[6] = test system: MCF7; test: Antiproliferative activity against human MCF7 cells assessed as inhibition of cell growth by MTT assay; assay type: functional, cell-based
[7] = test system: HCT-116; test: Antiproliferative activity against human HCT-116 cells assessed as inhibition of cell growth by MTT assay; assay type: functional, cell-based
[8] = biological target: E3 ubiquitin-protein ligase Mdm2 (Homo sapiens) (UniProt Q00987); test: Inhibition of MDM2 (unknown origin) using biotinylated P53 peptide as substrate at 1 uM by HTRF assay relative to control
Chain of E3 ubiquitin-protein ligase Mdm2 (Homo sapiens) (Q00987 whole entry, looked up): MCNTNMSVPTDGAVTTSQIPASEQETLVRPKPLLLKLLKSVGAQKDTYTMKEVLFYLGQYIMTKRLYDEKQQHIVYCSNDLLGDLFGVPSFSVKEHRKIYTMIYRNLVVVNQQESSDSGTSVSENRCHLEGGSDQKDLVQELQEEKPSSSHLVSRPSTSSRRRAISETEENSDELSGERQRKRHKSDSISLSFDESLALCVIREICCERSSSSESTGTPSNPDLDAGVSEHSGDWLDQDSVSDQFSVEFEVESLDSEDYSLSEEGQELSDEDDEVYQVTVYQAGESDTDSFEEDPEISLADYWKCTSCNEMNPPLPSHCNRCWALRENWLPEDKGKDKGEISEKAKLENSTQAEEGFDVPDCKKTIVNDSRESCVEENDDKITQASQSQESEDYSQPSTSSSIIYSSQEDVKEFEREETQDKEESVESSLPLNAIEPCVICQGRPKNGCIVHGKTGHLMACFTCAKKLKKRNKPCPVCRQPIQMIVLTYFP

[9] = Metabolic stability in rat liver microsomes assessed as half life; assay type: ADME, Microsome
[10] = biological target: Histone deacetylase; test: Inhibition of HDAC in human HeLa cell nuclear extract using Boc-Lys(Ac)-AMC as substrate; assay type: subcellular, Nucleus
[11] = Metabolic stability in human liver microsomes assessed as half life; assay type: ADME, Microsome
[12] = Toxicity in female BALB/c mouse assessed as maximum tolerable dose; settings: in vivo
[13] = Half life in BALB/c mouse at 50 mg/kg, po; assay type: ADME, organism-based; settings: in vivo
[14] = Tmax in BALB/c mouse at 50 mg/kg, po; assay type: ADME, organism-based; settings: in vivo
[15] = Cmax in BALB/c mouse at 50 mg/kg, po; assay type: ADME, organism-based; settings: in vivo
[16] = Oral bioavailability in BALB/c mouse at 50 mg/kg; assay type: ADME, organism-based; settings: in vivo
[17] = test system: RPMI-8226; test: Antiproliferative activity against human RPMI-8226 cells assessed as inhibition of cell growth incubated for 48 hrs by MTT assay; assay type: functional, cell-based; settings: RPMI-8226, 48 h
[18] = test system: U-266; test: cells; assay type: functional, cell-based; settings: Homo sapiens, U-266, 48 h
[19] = test system: MM1.S; test: Antiproliferative activity against human MM1.S cells assessed as inhibition of cell growth incubated for 48 hrs by MTT assay; assay type: functional, cell-based
[20] = Cytotoxicity against HEK293 cells assessed as inhibition of cell growth incubated for 48 hrs by MTT assay; assay type: toxicity, cell-based; settings: human
[21] = Cytotoxicity against human L02 cells assessed as inhibition of cell growth incubated for 48 hrs by MTT assay; assay type: toxicity, cell-based
[22] = biological target: T2, Protein deacetylase HDAC6 (Homo sapiens, UniProt Q9UBN7); test: Inhibition of HDAC6 (unknown origin) using Boc-Lys(acetyl)-AMC as substrate preincubated for 5 mins followed by substrate addition and measured after 30 mins by fluorescence based assay
T2 sequence (Q9UBN7 whole entry): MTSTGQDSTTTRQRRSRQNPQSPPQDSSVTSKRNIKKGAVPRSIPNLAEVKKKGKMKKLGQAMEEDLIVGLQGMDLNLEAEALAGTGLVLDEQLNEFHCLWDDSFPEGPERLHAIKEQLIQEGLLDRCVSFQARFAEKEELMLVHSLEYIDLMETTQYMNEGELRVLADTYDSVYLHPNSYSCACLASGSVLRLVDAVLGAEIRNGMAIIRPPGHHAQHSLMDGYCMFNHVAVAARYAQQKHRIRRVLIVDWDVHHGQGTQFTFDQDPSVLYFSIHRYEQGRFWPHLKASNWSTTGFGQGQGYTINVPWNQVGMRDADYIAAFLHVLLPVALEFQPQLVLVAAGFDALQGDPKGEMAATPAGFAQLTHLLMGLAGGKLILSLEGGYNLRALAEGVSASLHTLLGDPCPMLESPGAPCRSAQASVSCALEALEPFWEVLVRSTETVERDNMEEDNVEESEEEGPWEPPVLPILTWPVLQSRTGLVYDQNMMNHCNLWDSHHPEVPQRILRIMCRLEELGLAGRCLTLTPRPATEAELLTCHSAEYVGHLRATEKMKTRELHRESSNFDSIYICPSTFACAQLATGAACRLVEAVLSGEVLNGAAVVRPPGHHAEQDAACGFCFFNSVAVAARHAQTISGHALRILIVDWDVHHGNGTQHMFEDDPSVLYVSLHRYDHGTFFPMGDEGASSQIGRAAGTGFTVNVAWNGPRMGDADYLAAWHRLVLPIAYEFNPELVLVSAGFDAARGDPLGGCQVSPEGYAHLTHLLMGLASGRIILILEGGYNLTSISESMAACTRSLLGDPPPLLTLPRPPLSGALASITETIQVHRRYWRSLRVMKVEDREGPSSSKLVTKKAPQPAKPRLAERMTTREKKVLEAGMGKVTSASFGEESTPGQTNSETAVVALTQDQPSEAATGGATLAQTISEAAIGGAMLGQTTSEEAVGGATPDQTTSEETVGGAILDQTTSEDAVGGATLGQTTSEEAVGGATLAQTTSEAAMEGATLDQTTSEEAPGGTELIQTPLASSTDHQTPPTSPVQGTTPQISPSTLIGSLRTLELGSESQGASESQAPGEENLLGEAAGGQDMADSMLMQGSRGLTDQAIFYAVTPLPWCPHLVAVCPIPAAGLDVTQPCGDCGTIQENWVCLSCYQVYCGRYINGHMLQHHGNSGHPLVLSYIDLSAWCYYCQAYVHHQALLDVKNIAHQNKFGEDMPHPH

[23] = Metabolic stability in mouse liver microsomes assessed as half life at 1 uM incubated in presence of NADPH by LC-MS/MS analysis; assay type: ADME, Microsome
[24] = test system: RPMI-8226; test: Antitumor activity against human RPMI-8226 cells xenografted in BALB/c-nu mouse assessed as reduction in tumor growth by measuring relative increment ratio T/C at 50 mg/kg/day, ip administered for 19 days and measured every 3 days by vernier caliper relative to control; assay type: functional; settings: time 19 day
[25] = test system: U-87 MG; test: Antitumor activity against luciferase-transferred human U-87 MG cells xenografted in athymic nude mouse assessed as survival time at 150 mg/kg, po measured for 20 days; assay type: functional, U-87MG ATCC; settings: time 20 day
[26] = test system: C6; test: Antitumor activity against rat C6 cells allografted in Sprague-Dawley rat assessed as survival time at 150 mg/kg, po measured for 20 days; assay type: functional; settings: time 20 day
[27] = test system: PC-3; test: cells; assay type: functional; settings: Homo sapiens, time 96 hrs
[28] = biological target: Histone deacetylase; test: Inhibition of HDAC in human HeLa cell nuclear extract using Boc-Lys(Ac)-AMC as substrate preincubated for 15 mins followed by substrate addition and measured after 60 mins by fluorescence based analysis; assay type: subcellular, Nucleus
[29] = biological target: MAP kinase-interacting serine/threonine-protein kinase 1 (Homo sapiens) (UniProt Q9BUB5); test: Inhibition of MNK1 (unknown origin) at 1 uM incubated for 60 mins by HTRF assay relative to control
Chain of MAP kinase-interacting serine/threonine-protein kinase 1 (Homo sapiens) (Q9BUB5 whole entry, looked up): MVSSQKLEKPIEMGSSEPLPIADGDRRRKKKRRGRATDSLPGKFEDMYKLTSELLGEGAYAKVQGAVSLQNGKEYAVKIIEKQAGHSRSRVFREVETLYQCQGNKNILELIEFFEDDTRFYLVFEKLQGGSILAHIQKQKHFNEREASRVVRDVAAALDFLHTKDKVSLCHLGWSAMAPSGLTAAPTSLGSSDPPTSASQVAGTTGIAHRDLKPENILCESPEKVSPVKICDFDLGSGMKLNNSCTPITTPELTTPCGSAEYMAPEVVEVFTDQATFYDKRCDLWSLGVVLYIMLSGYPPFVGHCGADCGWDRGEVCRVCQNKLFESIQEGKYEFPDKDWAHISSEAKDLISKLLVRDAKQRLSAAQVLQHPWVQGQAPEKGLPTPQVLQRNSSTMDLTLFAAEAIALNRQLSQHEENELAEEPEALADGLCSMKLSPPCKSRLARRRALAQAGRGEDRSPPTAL

[30] = biological target: MAP kinase-interacting serine/threonine-protein kinase 2 (Homo sapiens) (UniProt Q9HBH9); test: Inhibition of MNK2 (unknown origin) at 1 uM incubated for 60 mins by HTRF assay relative to control
Chain of MAP kinase-interacting serine/threonine-protein kinase 2 (Homo sapiens) (Q9HBH9 whole entry, looked up): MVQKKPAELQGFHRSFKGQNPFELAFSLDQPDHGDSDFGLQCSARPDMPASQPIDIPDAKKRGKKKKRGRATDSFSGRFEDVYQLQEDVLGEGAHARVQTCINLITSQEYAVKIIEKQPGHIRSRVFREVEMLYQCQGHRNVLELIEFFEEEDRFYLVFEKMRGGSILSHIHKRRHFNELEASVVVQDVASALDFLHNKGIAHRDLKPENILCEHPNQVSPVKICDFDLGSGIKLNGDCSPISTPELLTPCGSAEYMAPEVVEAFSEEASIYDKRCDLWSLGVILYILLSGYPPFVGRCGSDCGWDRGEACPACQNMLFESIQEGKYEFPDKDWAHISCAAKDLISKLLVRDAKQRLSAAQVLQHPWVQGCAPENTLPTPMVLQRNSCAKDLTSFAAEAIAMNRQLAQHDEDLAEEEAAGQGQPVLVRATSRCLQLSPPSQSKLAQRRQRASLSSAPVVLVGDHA

Compound: O=C(CCCCCCC(=O)N1CCC(C(=O)Nc2ccc([C@@H]3[C@H]4CSCN4[C@]4(C(=O)Nc5cc(Cl)ccc54)[C@H]3C(=O)c3ccccc3)cc2)CC1)NO
- IC50 [5]: 1.37 µM
- IC50 [6]: 1.37 µM
- IC50 [7]: 1.37 µM
- inhibition [8]: 65%

Compound: CC(C)n1cnc2c(-c3cccc(OCCCC(=O)NO)c3)nc(N3CCOCC3)nc21
- half-life [9]: > 45 min
- IC50 [10]: 0.035 µM
- half-life [11]: > 45 min
- MTD [12]: 200 mg/kg
- half-life [13]: 113 min
- Tmax [14]: 9 min
- Cmax [15]: 1.61 µg/mL
- bioavailability [16]: 21%

Compound: O=C(NO)c1ccc(CNc2ncnc3[nH]ccc23)cc1
- IC50 [17]: 0.62 µM
- IC50 [18]: 0.62 µM
- IC50 [19]: 0.62 µM
- IC50 at 48 h [20]: > 50 µM
- IC50 at 48 h [21]: > 50 µM
- IC50 [22]: 0.01 µM
- half-life at 1 µM [23]: > 60 min
- T/C [24]: 70%

Compound: O=C(CCCCCCC(=O)Nc1ccccc1)NO [VORINOSTAT]
- Survival [25]: 13 days
- Survival [26]: 13 days

Continued, in another order:

- IC50 [1]: 0.117 µM
- CLint scaled [2]: 1.37 L/h/kg
- half-life [3]: 54.8 min
Compound: COc1cc(-c2cccc(-c3ccc(/C=C/C(=O)NO)cc3)n2)cc(OC)c1OC
- inhibition in vivo at 50 mg/kg [4]: 61%

- GI50 [27]: 2.91 µM
- IC50 [28]: 0.78 µM
- inhibition [29]: 54%
- inhibition [30]: 70%
Compound: O=C(CCCCCCC(=O)Nc1ccc2ncnc(Nc3ccc(F)cc3)c2n1)NO
